# Literature values in patent US20060019940A1, “Novel benzoxazocines and their therapeutic use” (priority 2002, published 2006).
# What was measured:
# [1] = system: synaptosomal uptake of dopamine, norepinephrine and serotonin; settings: order of potency (+)-nefopam>(±)-nefopam>(−)-nefopam
# [2] = order of potency (+)-nefopam>(±)-nefopam>(−)-nefopam
compound,measurement,setting,value
CN1CCO[C@@H](c2ccccc2)c2ccccc2C1 [(+)-nefopam],"dopamine, norepinephrine and serotonin uptake inhibitory properties compared with (−)-nefopam",[1],more potent
same,analgesic properties compared with (−)-nefopam,[2],more potent
